Measurements from paper PMC3830801, “Synthesis and Biological Evaluation of 2-Hydroxy-3-[(2-aryloxyethyl)amino]propyl 4-[(Alkoxycarbonyl)amino]benzoates” (The Scientific World Journal, 2013).

Legend:
[1] = tested on: human monocytic leukaemia THP-1 cell line; experiment: In vitro cytotoxicity assay (WST-1); assay type: cell-based; conditions: 24 h; for increase in LD50 relative to cytotoxicity: human, 30 μmol/L
Protocol: The human monocytic leukaemia THP-1 cell line was purchased from the European Collection of Cell Cultures (ECACC, Salisbury, UK). […] Cells were passaged at approximately one-week intervals. […] The maximum concentration of DMSO in the assays never exceeded 0.1%. Cytotoxicity of the compounds was determined using a WST-1 assay kit (Roche Diagnostics, Mannheim, Germany), as described previously. The median lethal dose values, LD50, were deduced through the production of a dose-response curve. All data from three independent experiments were evaluated using GraphPad Prism 5.00 software (GraphPad Software, San Diego, CA, USA, http://www.graphpad.com).

[2] = Lipophilicity determination by HPLC (capacity factor k / log k); assay type: physicochemical; conditions: RP-HPLC, C18, MeOH 55%/H2O 45%
From the text: A Waters Alliance 2695 XE HPLC separation module and a Waters Photodiode Array Detector 2996 (Waters Corp., Milford, MA, USA) were used. A Symmetry C18 5 μm, 4.6 × 250 mm, part number WAT054275 (Waters Corp., Milford, MA, USA) chromatographic column was used. The HPLC separation process was monitored by Empower 2 Chromatography Data Software, Waters 2009 (Waters Corp., Milford, MA, USA). A mixture of MeOH p.a. (55%) and H2O-HPLC–Milli-Q Grade (45%) was used as a mobile phase. The total flow of the column was 1.0 mL/min, injection volume 30 μL, column temperature 45°C, and sample temperature 10°C. The detection wavelength of 210 nm was chosen. The KI methanolic solution was used for the dead time (t D) determination. Retention times (t R) were measured in minutes. The capacity factors k were calculated using the Empower 2 Chromatography Data Software according to formula k = (t R − t D)/t D, where t R is the retention time of the solute, whereas t D denotes the dead time obtained using an unretained analyte. logk, calculated from the capacity factor k, is used as the lipophilicity index converted to logP scale.

[3] = pKa determination by RP-HPLC; assay type: physicochemical; conditions: from retention factor vs pH of mobile phase, recalculated for water medium
[4] = tested on: Mycobacterium avium subsp. paratuberculosis CIT03; experiment: In vitro antimycobacterial evaluation (alamarBlue, MIC); assay type: cell-based; conditions: Mycobacterium avium, 264 h; MIC/IC90, 11 days incubation, 37°C
Protocol: (§1) Clinical isolates of Mycobacterium avium subsp. paratuberculosis CIT03 and M. intracellulare were grown in Middlebrook broth (MB), supplemented with oleic-albumin-dextrose-catalase supplement (OADC, Becton Dickinson, UK) and mycobactin J (2 μg/mL). Identification of these isolates was performed using biochemical and molecular protocols. At log phase growth, the culture (10 mL) was centrifuged at 15,000 rpm/20 min using a bench top centrifuge (Model CR 4–12, Jouan Inc., UK). Following the removal of the supernatant, the pellet was washed in fresh Middlebrook 7H9GC broth and resuspended in fresh supplemented MB (10 mL). The turbidity was adjusted to match McFarland standard no. 1 (3 × 10^8 cfu) with MB broth. A further 1 : 20 dilution of the culture was then performed in MB broth. The antimicrobial susceptibility of all four mycobacterial species was investigated in a 96-well plate format. In these experiments, sterile deionised water (300 μL) was added to all outer-perimeter wells of the plates to minimize evaporation of the medium in the test wells during incubation. Each evaluated compound (100 μL) was incubated with each of the mycobacterial species (100 μL). Dilutions of each compound were prepared in duplicate. For all synthesized compounds, final concentrations ranged from 1,000 μg/mL to 8 μg/mL. All compounds were prepared in DMSO, and subsequent dilutions were made in supplemented MB. The plates were sealed with parafilm and incubated at 37°C, for 7 days in the case of M. intracellulare and 11 days in the case of M. avium paratuberculosis. Following incubation, a 10% addition of alamarBlue (AbD Serotec) was mixed with each well, and readings at 570 nm and 600 nm were taken, initially for background subtraction and subsequently after 24 h reincubation. […] For noninterfering compounds, a blue colour in the well was interpreted as an absence of growth, and a pink colour was scored as growth. The MIC was initially defined as the lowest concentration which prevented a visual colour change from blue to pink. […] The MIC/IC90 value is routinely and widely used in bacterial assays and is a standard detection limit according to the Clinical and Laboratory Standards Institute (CLSI, http://www.clsi.org/).

[5] = tested on: Mycobacterium intracellulare; experiment: as above; assay type: cell-based; conditions: Mycobacterium intracellulare, 168 h; MIC/IC90, 7 days incubation, 37°C
Protocol: as §1

[6] = tested on: spinach chloroplasts; experiment: Photosynthetic electron transport (PET) in spinach chloroplasts (DCPIP photoreduction); assay type: biochemical, Spinacia oleracea L.; conditions: DMSO 8% v/v
Protocol: Chloroplasts were prepared from spinach (Spinacia oleracea L.) according to Masarovičová and Král'ová [38]. The inhibition of photosynthetic electron transport (PET) in spinach chloroplasts was determined spectrophotometrically (Genesys 6, Thermo Scientific, USA), using an artificial electron acceptor 2,6-dichlorophenol-indophenol (DCIPP) according to Král'ová et al., and the rate of photosynthetic electron transport was monitored as a photoreduction of DCPIP. The measurements were carried out in phosphate buffer (0.02 mol/L, pH 7.2) containing sucrose (0.4 mol/L), MgCl2 (0.005 mol/L), and NaCl (0.015 mol/L). The chlorophyll content was 30 mg/L in these experiments, and the samples were irradiated (~100 W/m^2 with 10 cm distance) with a halogen lamp (250 W) using a 4 cm water filter to prevent warming of the samples (suspension temperature 22°C). The studied compounds were dissolved in DMSO due to their limited water solubility, and the concentration of DMSO was constant (8% (v/v)) in control as well as in amphiphile-treated samples.

Row | Structure (SMILES) | LD50 ([1]; THP-1 cells, highest dose 30 μmol/L) | Log k [2] | pKa [3] | increase in LD50 relative to cytotoxicity [1] | MIC [4] | MIC [5] | effect on the rate of PET (in words) [6]
1 | CC[C@@]1(O)C(=O)OCc2c1cc1n(c2=O)Cc2cc3ccccc3nc2-1 [camptothecin, reference compound] | 0.16 ± 0.07 µmol/L | – | – | – | – | – | –
2 | CCCCOC(=O)Nc1ccc(C(=O)OCC(O)CNCCOc2c(OC)cccc2OC)cc1.Cl (stereo not shown) [Compound 21d, 2-Hydroxy-3-[2-(2,6-dimethoxyphenoxy)ethylamino]-propyl 4-(Butoxycarbonylamino)benzoate Hydrochloride] | – | 0.4177 | 8.58 | 61% | 59 µM | 114 µM | significantly stimulated the rate of PET
3 | CCCCOC(=O)Nc1ccc(C(=O)OCC(O)CNCCOc2ccc(F)cc2)cc1.Cl (stereo not shown) [Compound 23d, 3-[2-(4-Fluorophenoxy)ethylamino]-2-hydroxypropyl 4-(Butoxycarbonylamino)benzoate Hydrochloride] | – | 0.4365 | 8.08 | 96% | 64 µM | 258 µM | significantly stimulated the rate of PET
